Laboratory results as given in BigSolDB 2.1.

In the case of `Cc1cnc(NC(=O)C2=C(O)c3ccccc3S(=O)(=O)N2C)s1`, the solubility (mole fraction) (in PEG-400, 298.15 K) was 0.00932, the solubility (mole fraction) (in PEG-400, 303.15 K) was 0.0096 and the solubility (mole fraction) (in PEG-400, 308.15 K) was 0.0101. For the same compound, the solubility (mole fraction) (in PEG-400, 313.15 K) was 0.0104, the solubility (mole fraction) (in PEG-400, 318.15 K) was 0.0106 and the solubility (mole fraction) (in water, 298.15 K) was 4.24e-07. The solubility (mole fraction) (in water, 303.15 K) was 6.28e-07, the solubility (mole fraction) (in water, 308.15 K) was 9.48e-07 and the solubility (mole fraction) (in water, 313.15 K) was 1.34e-06. The solubility (mole fraction) (in water, 318.15 K) was 1.93e-06.
